From patent US7244727B2, “Fused bicyclic nitrogen-containing heterocycles” (Japan Tobacco Inc., priority 2002, dated 2007)

Biological target: T1, human DGAT1 (Homo sapiens, UniProt O75907)
T1 construct: made in house; host or cells: insect cells (sf9, sf21 or High Five) infected with baculovirus; total cell membranes
T1 sequence (O75907 1-488): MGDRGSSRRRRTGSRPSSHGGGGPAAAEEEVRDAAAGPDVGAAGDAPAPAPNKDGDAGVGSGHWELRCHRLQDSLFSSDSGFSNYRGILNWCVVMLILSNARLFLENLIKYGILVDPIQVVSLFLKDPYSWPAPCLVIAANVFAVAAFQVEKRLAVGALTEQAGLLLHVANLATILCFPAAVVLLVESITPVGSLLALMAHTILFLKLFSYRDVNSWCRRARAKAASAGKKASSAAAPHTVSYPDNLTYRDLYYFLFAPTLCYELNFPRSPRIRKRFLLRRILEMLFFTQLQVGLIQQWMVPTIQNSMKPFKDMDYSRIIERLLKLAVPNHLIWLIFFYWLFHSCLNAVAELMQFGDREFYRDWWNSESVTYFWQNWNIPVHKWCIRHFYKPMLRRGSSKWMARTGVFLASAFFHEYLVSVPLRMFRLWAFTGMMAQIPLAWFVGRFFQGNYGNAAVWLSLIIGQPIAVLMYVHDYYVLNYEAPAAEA
Test: DGAT Scintillation Proximity Assay (SPA) with membranes of insect cells expressing human flagtag DGAT1
Format: biochemical
Conditions: read-out: hDGAT1 IC50
Procedure: In such an assay human DGAT1 is cloned from a human liver cDNA library. PCR is used to add a restriction site and flag epitope at the most 5′ end and a restriction site at the 3′ end of the sequence. Thereafter, human flagtag (FT) DGAT1 baculovirus may be generated using a Bac-to-Bac Baculovirus Expression System® (Invitrogen). Insect cells (e.g., sf9, sf2 1, or High Five) are infected for 24 to 72 h and collected by centrifugation. Cell pellets are resuspended in homogenization buffer and lysed using a homogenization device, such as a Microfluidizer. Total cell membranes are collected by ultracentrifugation at 45,000 rpm for 1 h.
A small aliquot (0.2 μg/well) of membrane is incubated with 10 μM compound or mercuric chloride (as positive control for inhibition) in the presence of enzyme substrate, dioleoyl glycerol (200 μM) in 384 well plates, final volume 50 gL per well. […] The reaction is stopped by adding Wheat Germ Agglutinin (WGA) SPA beads (0.2 mg) in mercuric chloride. Cell membranes are allowed to couple to the beads overnight. The signal can be measured using, for example, a Chemiluminescence Image Plate Reader (CLIPR) or TopCount device.

| SMILES | IC50 [nM] |
| --- | --- |
| CC1(C)Oc2ncnc(N)c2N=C1c1ccc(C2CCC(c3cc(O)no3)CC2)cc1 (centres unmarked) [Example 10-8] | 10 to 100 |
| CC1(C)Oc2ncnc(N)c2N=C1c1ccc(C2CCC(N3CCCCC3)CC2)cc1 (centres unmarked) [Example 2-90] | > 100 |
| Nc1ncnc2c1N=C(c1ccc(Br)s1)CO2 [Example 1-24] | > 100 |
| Cc1nc(N)c2c(n1)OC(C)(C)C(c1ccc(C3CCC([C@H](C)C(=O)O)CC3)cc1)=N2 (some centres unmarked) [Example 9-2] | 10 to 100 |
| CC1(C)Oc2nc(C(F)(F)F)nc(N)c2N=C1c1ccc(C2CCC(C(C)(C)C(=O)O)CC2)cc1 (centres unmarked) [Example 10-20] | 10 to 100 |
| CC1(C)Oc2ncnc(N)c2N=C1c1ccc(C2CCC(c3cc(O)on3)CC2)cc1 (centres unmarked) [Example 10-9] | 10 to 100 |
| Cc1ccc(C2=Cc3c(N)ncnc3OC2(C)C)cc1 [Example 7-3] | > 100 |
| CC1(C)Oc2ncnc(N)c2N=C1c1ccc([C@H]2CC[C@H](CN3CCC(O)CC3)CC2)cc1 [Example 2-225] | > 100 |
| CC(C)(C)OC(=O)N1CCN(C[C@H]2CC[C@H](c3ccc(C4=Nc5c(N)ncnc5OC4(C)C)cc3)CC2)CC1 [Example 2-242] | > 100 |
| Cc1nc(N)c2c(n1)OC(C)(C)C(c1ccc3c(c1)CC[C@]31CC[C@@H](CC(=O)O)CC1)=N2 [Example 8-6] | 10 to 100 |
| Cc1nc(N)c2c(n1)OC(C)(C)C(c1ccc([C@H]3CC[C@H](Cc4nc(=O)on4C)CC3)cc1)=N2 [Example 2-168] | 10 to 100 |
| Cc1nc(N)c2c(n1)OC(C)(C)C(c1ccc([C@H]3CC[C@H](C(C)C(=O)O)CC3)cc1)=C2 (some centres unmarked) [Example 10-30] | 10 to 100 |
| CC1(C)Oc2ncnc(N)c2N=C1c1ccc2c(c1)CCC21CCC(CC(=O)O)CC1 (centres unmarked) [Example 10-10] | < 10 |
| Cc1nc(N)c2c(n1)OC(C)(C)C(c1ccc([C@H]3CC[C@H](Cn4oc(=O)[nH]c4=O)CC3)cc1)=N2 [Example 2-157] | < 10 |
| CC1(C)Oc2ncnc(N)c2N=C1c1ccc([C@H]2CC[C@H](CN3CCC(O)(c4ccccc4)CC3)CC2)cc1 [Example 2-226] | > 100 |
| Cc1nc(N)c2c(n1)OC(C)(C)C(c1ccc([C@H]3CC[C@H](CC(=O)O)CC3)cc1)C2 (some centres unmarked) [Example 7-2] | 10 to 100 |
| CC1(C)Oc2ncnc(N)c2N=C1c1ccc(C2CCC(N3CCCC3)CC2)cc1 (centres unmarked) [Example 2-89] | > 100 |
| CN(C)CCNC(=O)C=C1CCC(c2ccc(C3=Nc4c(N)ncnc4OC3(C)C)cc2)CC1 (centres unmarked) [Example 2-51] | 10 to 100 |
| Cc1nc(N)c2c(n1)OC(C)(C)C(c1ccc3c(c1)CCC31CCC([C@@H](C)C(=O)O)CC1)=N2 (some centres unmarked) [Example 8-4] | 10 to 100 |
| Cc1nc(N)c2c(n1)OC(C)(C)C(c1ccc3c(c1)CCC31CCC(C3(C(=O)O)CC3)CC1)=N2 (centres unmarked) [Example 10-24] | 10 to 100 |
| CC1(C)Oc2ncnc(N)c2N=C1c1ccc(C2CCC(C(C)(C)C(=O)O)CC2)cc1 (centres unmarked) [Example 10-3] | < 10 |

| SMILES | IC50 [nM] |
| --- | --- |
| Cc1nc(N)c2c(n1)OC(C)(C)C(c1ccc([C@H]3CC[C@H](CN4CC(C)(C)C(O)C4=O)CC3)cc1)=N2 (some centres unmarked) [Example 2-167] | 10 to 100 |
| CCc1nc(N)c2c(n1)OC(C)(C)C(c1ccc([C@H]3CC[C@H](CC(=O)O)CC3)cc1)N2 (some centres unmarked) [Example 10-23] | 10 to 100 |
| CC1(C)Oc2ncnc(N)c2N=C1c1ccc(C2CCC(=CC(N)=O)CC2)cc1 (centres unmarked) [Example 2-46] | 10 to 100 |
| Cc1nc(N)c2c(n1)OC(C)(C)C(c1ccc(C3CCC(C(C)(C)C(=O)O)CC3)cc1)=N2 (centres unmarked) [Example 10-14] | 10 to 100 |
| COc1ccc2[nH]c(C[C@H]3CC[C@H](c4ccc(C5=Nc6c(N)ncnc6OC5(C)C)cc4)CC3)nc2c1 [Example 2-121] | 10 to 100 |
| CCc1nc(N)c2c(n1)OC(C)(C)C(c1ccc(C3CCC(CC(=O)O)CC3)cc1)=N2 (centres unmarked) [Example 10-18] | 10 to 100 |
| CC1(C)Oc2ncnc(N)c2N=C1c1ccc(C2CCC(C3(C(=O)O)CC3)CC2)cc1 (centres unmarked) [Example 10-5] | 10 to 100 |
| CC1(C)Oc2ncnc(N)c2N=C1c1ccc([C@H]2CC[C@H](CN)CC2)cc1 [Example 2-63] | 10 to 100 |
| CCC(C(=O)O)C1CCC(c2ccc(C3=Nc4c(N)ncnc4OC3(C)C)cc2)CC1 (centres unmarked) [Example 10] | < 10 |
| CN1CCN(C(=O)C=C2CCC(c3ccc(C4=Nc5c(N)ncnc5OC4(C)C)cc3)CC2)CC1 (centres unmarked) [Example 2-50] | 10 to 100 |
| CC1(C)Oc2nc(C(F)(F)F)nc(N)c2N=C1c1ccc2c(c1)CCC21CCC(C2(C(=O)O)CC2)CC1 (centres unmarked) [Example 10-25] | 10 to 100 |
| CC1(C)Oc2ncnc(N)c2N=C1c1ccc2c(c1)CC[C@@H]1C/C(=C\C(=O)O)CC[C@H]21 [Example 10-2] | 10 to 100 |
| CC1(C)Oc2ncnc(N)c2N=C1c1ccc(C2CCC(C(O)C(=O)O)CC2)cc1 (centres unmarked) [Example 10-6] | 10 to 100 |
| CN1CCN(C(=O)CC[C@H]2CC[C@H](c3ccc(C4=Nc5c(N)ncnc5OC4(C)C)cc3)CC2)CC1 [Example 2-181] | 10 to 100 |
| CCC(C(=O)O)C1CCC(c2ccc(C3=Nc4c(N)nc(C)nc4OC3(C)C)cc2)CC1 (centres unmarked) [Example 10-27] | 10 to 100 |
| Cc1nc(N)c2c(n1)OC(C)(C)C(c1ccc(C3CCC(C(C)C(=O)O)CC3)cc1)=N2 (single isomer, unassigned) [Example 9] | 10 to 100 |
| CC1(C)Oc2ncnc(N)c2N=C1c1ccc2c(c1)COC21CCC(CC(=O)O)CC1 (centres unmarked) [Example 8-2] | 10 to 100 |
| CC1(C)Oc2nc(C(F)(F)F)nc(N)c2N=C1c1ccc2c(c1)CCC21CCC(C(C)(C)C(=O)O)CC1 (centres unmarked) [Example 10-26] | 10 to 100 |
| CC(C(=O)O)C1CCC(c2ccc(C3=Nc4c(N)nc(C(F)(F)F)nc4OC3(C)C)cc2)CC1 (centres unmarked) [Example 10-15] | < 10 |
| CC1(C)Oc2ncnc(N)c2N=C1c1ccc2c(c1)CCC[C@]21CC[C@@H](CC(=O)O)CC1 [Example 8] | < 10 |
| Cc1nc(N)c2c(n1)OC(C)(C)C(c1ccc([C@H]3CC[C@H](CC(=O)O)CC3)c(C)c1)=N2 [Example 10-22] | 10 to 100 |

| SMILES | IC50 [nM] |
| --- | --- |
| CC1(C)Oc2ncnc(N)c2N=C1c1ccc([C@H]2CC[C@H](CO)CC2)cc1 [Example 2-216] | 10 to 100 |
| CC1(C)Oc2ncnc(N)c2N=C1c1ccc(C2CCNCC2)cc1 [Example 3-2] | > 100 |
| CC1(C)Oc2ncnc(N)c2N=C1c1ccc(C2CCC3(CC2)CC3C(=O)O)cc1 (centres unmarked) [Example 10-4] | 10 to 100 |
| CC1(C)Oc2ncnc(N)c2N=C1c1ccc(C2CCC(c3cc(O)[nH]n3)CC2)cc1 (centres unmarked) [Example 10-7] | 10 to 100 |
| CC1(C)Oc2ncnc(N)c2N=C1c1ccc2c(c1)CCCC21CCC(C2(C(=O)O)CC2)CC1 (centres unmarked) [Example 10-12] | 10 to 100 |
| Cc1nc(N)c2c(n1)OC(C)(C)C(c1ccc3c(c1)CCC31CCC(C(C)(C)C(=O)O)CC1)=N2 (centres unmarked) [Example 10-16] | 10 to 100 |
| Nc1ncnc2c1N=C(c1ccccc1Br)CO2 [Example 1-5] | > 100 |
| CC1(C)Oc2ncnc(N)c2N=C1c1ccc2c(c1)C(C)(C)CCC21CCC(CC(=O)O)CC1 (centres unmarked) [Example 10-11] | 10 to 100 |
| CC1(C)Oc2ncnc(N)c2NC1c1ccc([C@H]2CC[C@H](CO)CC2)cc1 (some centres unmarked) [Example 2-223] | > 100 |
| CC1(C)Oc2ncnc(N)c2N=C1c1ccc([C@H]2CC[C@H](CNC(=O)CO)CC2)cc1 [Example 2-91] | 10 to 100 |
| CC(C)(C)OC(=O)NS(=O)(=O)NC[C@H]1CC[C@H](c2ccc(C3=Nc4c(N)ncnc4OC3(C)C)cc2)CC1 [Example 2-125] | < 10 |
| CN(C)C(=O)C=C1CCC(c2ccc(C3=Nc4c(N)ncnc4OC3(C)C)cc2)CC1 (centres unmarked) [Example 2-44] | 10 to 100 |
| Cc1nc(N)c2c(n1)OC(C)(C)C(c1ccc([C@H]3CC[C@H](CC4=NS(=O)ON4)CC3)cc1)=N2 (some centres unmarked) [Example 2-153] | < 10 |
| Cc1nc(N)c2c(n1)OC(C)(C)C(c1ccc([C@H]3CC[C@H](CNC(=O)COC(=O)CCC(=O)O)CC3)cc1)=N2 [Example 2-49] | 10 to 100 |
| Cc1nc(N)c2c(n1)OC(C)(C)C(c1ccc([C@H]3CC[C@H](CN4CCNC4=O)CC3)cc1)=N2 [Example 2-171] | > 100 |
| Cc1nc(N)c2c(n1)OC(C)(C)C(c1ccc(C3CCC(C4(C(=O)O)CC4)CC3)cc1)=N2 (centres unmarked) [Example 10-21] | 10 to 100 |
| CC1(C)Oc2ncnc(N)c2N=C1c1ccc2c(c1)CCC21CCC(C(C)(C)C(=O)O)CC1 (centres unmarked) [Example 10-13] | < 10 |
| Cc1nc(N)c2c(n1)OC(C)(C)C(c1ccc(CC3CCC(C(=O)O)CC3)cc1)=N2 (centres unmarked) [Example 10-29] | 10 to 100 |
| Cc1nc(N)c2c(n1)OC(C)(C)C(c1ccc([C@H]3CC[C@H](Cc4cc(O)[nH]n4)CC3)cc1)=N2 [Example 2-155] | 10 to 100 |
| CC1(C)Oc2nc(C(F)(F)F)nc(N)c2N=C1c1ccc(C2CCC(C3(C(=O)O)CC3)CC2)cc1 (centres unmarked) [Example 10-19] | 10 to 100 |
